The values below are quoted from earlier work in US20260232560A1, “SKIN HEALTH BENEFITTING COMPOSITIONS” (priority 2023, published 2026).

For series [1] the following is noted: poor solubility and permeability.
For series [2] the following is noted: background statement.

In the case of `O=c1oc2c(O)c(O)cc3c(=O)oc4c(O)c(O)cc1c4c23` [Ellagic acid], the BCS class entry in series [1] is recorded as “BCS Class IV”.
For `CCCC\C=C/C=C/C=C\CCCCCCCC(=O)O` [Punicic acid], the “antioxidant power relative to grape seed extract” value in series [2] is recorded as “approximately 10 times”.
